Source: patent US9260408B2, “Dihydroquinoline-2-one derivatives” (Hoffmann-La Roche Inc., priority 2011, dated 2016)
Structures can show the parent of a compound that is named as a salt.

Columns and labels:
[1] = molecular target: T1, human CYP11B2 (Homo sapiens, UniProt P19099); assay: G-402 cellular enzyme assay, human CYP11B2 (aldosterone release, HTRF); type: cell-based; details: G-402 cells expressing human CYP11B2; 1 μM Deoxycorticosterone
T1 construct: expressed in transfected cells
T1 sequence (P19099 25-503): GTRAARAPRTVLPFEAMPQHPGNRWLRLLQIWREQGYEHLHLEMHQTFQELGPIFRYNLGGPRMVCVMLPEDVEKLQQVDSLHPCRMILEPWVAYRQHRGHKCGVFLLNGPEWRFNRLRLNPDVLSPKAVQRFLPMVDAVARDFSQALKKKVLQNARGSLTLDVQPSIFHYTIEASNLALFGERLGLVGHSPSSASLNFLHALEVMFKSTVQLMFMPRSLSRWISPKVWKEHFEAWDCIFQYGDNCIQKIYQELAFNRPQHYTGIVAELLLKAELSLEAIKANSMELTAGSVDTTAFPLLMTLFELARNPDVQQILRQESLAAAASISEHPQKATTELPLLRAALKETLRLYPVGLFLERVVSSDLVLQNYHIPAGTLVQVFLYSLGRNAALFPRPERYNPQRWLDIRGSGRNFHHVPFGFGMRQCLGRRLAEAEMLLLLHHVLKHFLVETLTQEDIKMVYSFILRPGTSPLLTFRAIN
In short: (§1)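 EC50 comes from least-squares fitting of a 4-parameter MMF curve to steroid product levels, measured by HTRF as aldosterone for CYP11B2 or cortisol for CYP11B1. Stably transfected G-402 host cells were given substrate (1 μM deoxycorticosterone or deoxycortisol, respectively) with inhibitor for 16 h in medium with 2.5% charcoal-treated FCS.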

[2] = molecular target: T2, human CYP11B1 (Homo sapiens, UniProt P15538); assay: G-402 cellular enzyme assay, human CYP11B1 (cortisol release, HTRF); type: cell-based; details: G-402 cells expressing human CYP11B1; 1 μM Deoxycortisol
T2 construct: expressed in transfected cells
T2 sequence (P15538 25-503): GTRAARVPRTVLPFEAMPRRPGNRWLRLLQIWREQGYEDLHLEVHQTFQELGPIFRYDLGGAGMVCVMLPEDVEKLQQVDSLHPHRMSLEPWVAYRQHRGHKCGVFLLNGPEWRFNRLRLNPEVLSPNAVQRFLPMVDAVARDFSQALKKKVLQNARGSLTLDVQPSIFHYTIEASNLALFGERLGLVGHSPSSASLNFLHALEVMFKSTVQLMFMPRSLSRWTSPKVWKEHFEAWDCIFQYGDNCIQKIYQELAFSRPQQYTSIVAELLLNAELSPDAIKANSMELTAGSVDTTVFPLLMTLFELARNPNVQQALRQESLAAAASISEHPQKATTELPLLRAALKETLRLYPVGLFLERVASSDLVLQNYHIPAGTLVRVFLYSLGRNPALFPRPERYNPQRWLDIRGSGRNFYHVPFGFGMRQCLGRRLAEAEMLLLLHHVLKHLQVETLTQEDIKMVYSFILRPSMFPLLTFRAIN
In short: as §1

Structure (SMILES)	EC50 [1] [µM]	EC50 [2] [µM]
CCN(Cc1cncc(-c2ccc3c(c2)CCC(=O)N3C)c1)S(=O)(=O)CC [Example 181, Ethanesulfonic acid ethyl-[5-(1-methyl-2-oxo-1,2,3,4-tetrahydro-quinolin-6-yl)-pyridin-3-ylmethyl]-amide]	0.025	2.32
CN1C(=O)CCc2cc(-c3cncc(OC[C@@H]4CCN4C(=O)OC(C)(C)C)c3)ccc21 [Example 45, (S)-2-[5-(1-Methyl-2-oxo-1,2,3,4-tetrahydro-quinolin-6-yl)-pyridin-3-yloxymethyl]-azetidine-1-carboxylic acid tert-butyl ester]	0.087	0.863
CCS(=O)(=O)NCc1cncc(-c2cc3c(cc2F)N(C)C(=O)CC3)c1 [Example 16, ethanesulfonic acid [5-(7-fluoro-1-methyl-2-oxo-1,2,3,4-tetrahydro-quinolin-6-yl)-pyridin-3-ylmethyl]-amide]	0.011	0.86
CN1C(=O)CCc2cc(-c3cncc(OCCNC(=O)OC(C)(C)C)c3)ccc21 [Example 39, {2-[5-(1-Methyl-2-oxo-1,2,3,4-tetrahydro-quinolin-6-yl)-pyridin-3-yloxy]-ethyl}-carbamic acid tert-butyl ester]	0.01	0.12
CN1C(=O)CCc2cc(-c3cncc(O[C@H]4CCCNC4)c3)ccc21 [Example 61, 1-Methyl-6-[5-((S)-piperidin-3-yloxy)-pyridin-3-yl]-3,4-dihydro-1H-quinolin-2-one]	0.508	20.1
Cc1noc(C)c1C(=O)NC(C)(C)c1cncc(-c2ccc3c(c2)CCC(=O)N3C)c1 [Example 139]	0.018	0.455
CN1C(=O)CCc2cc(-c3cncc(CNC(=O)c4cnn(C)c4)c3)c(F)cc21 [Example 175, 1-Methyl-1H-pyrazole-4-carboxylic acid [5-(7-fluoro-1-methyl-2-oxo-1,2,3,4-tetrahydro-quinolin-6-yl)-pyridin-3-ylmethyl]-amide]	0.007	0.688
CC(NC(=O)c1ncccc1Cl)c1cncc(-c2ccc3c(c2)CCC(=O)N3C)c1 (single isomer, unassigned) [Example 230, 3-Chloro-pyridine-2-carboxylic acid {(R or S)-1-[5-(1-methyl-2-oxo-1,2,3,4-tetrahydro-quinolin-6-yl)-pyridin-3-yl]-ethyl}-amide]	0.001	0.007
CN1C(=O)CCc2cc(-c3cncc(CNC(=O)c4ncc(C(F)(F)F)cn4)c3)ccc21 [Example 123]	0.062	2.92
CN1C(=O)CCc2cc(-c3cncc(O[C@H]4CCN(C(=O)C5CC5)C4)c3)ccc21 [Example 76, 6-[5-((S)-1-Cyclopropanecarbonyl-pyrrolidin-3-yloxy)-pyridin-3-yl]-1-methyl-3,4-dihydro-1H-quinolin-2-one]	0.023	0.452

Further molecules by falling EC50 [1], results first:

EC50 [1] [µM]	EC50 [2] [µM]	Structure (SMILES)
0.682	11.1	CCS(=O)(=O)NCc1cncc(-c2ccc3c(c2)CCC(=O)N3)c1 [Example 55, ethanesulfonic acid [5-(2-oxo-1,2,3,4-tetrahydro-quinolin-6-yl)-pyridin-3-ylmethyl]-amide]
0.319	17.9	CN1C(=O)CCc2cc(-c3cncc(N4C(=O)CC[C@H]4CO)c3)ccc21 [Example 13]
0.155	1.37	CN1C(=O)CCc2cc(-c3cncc(CNS(=O)(=O)c4ccc(Cl)c(Cl)c4)c3)ccc21 [Example 156, 3,4-Dichloro-N-[5-(1-methyl-2-oxo-1,2,3,4-tetrahydro-quinolin-6-yl)-pyridin-3-ylmethyl]-benzenesulfonamide]
0.062	2.85	CN1C(=O)CCc2cc(-c3cncc(CNS(=O)(=O)CC(F)(F)F)c3)ccc21 [Example 162, 2,2,2-Trifluoro-ethanesulfonic acid [5-(1-methyl-2-oxo-1,2,3,4-tetrahydro-quinolin-6-yl)-pyridin-3-ylmethyl]-amide]
0.049	2.33	CN1C(=O)CCc2cc(-c3cncc(CN4C(=O)CC[C@H]4CO)c3)ccc21 [Example 8, 6-[5-((S)-2-Hydroxymethyl-5-oxo-pyrrolidin-1-ylmethyl)-pyridin-3-yl]-1-methyl-3,4-dihydro-1H-quinolin-2-one]
0.042	0.879	CN(Cc1cncc(-c2cc(Cl)c3c(c2)CCC(=O)N3)c1)C(=O)c1ncccc1Cl [Example 216, 3-Chloro-pyridine-2-carboxylic acid [5-(8-chloro-2-oxo-1,2,3,4-tetrahydro-quinolin-6-yl)-pyridin-3-ylmethyl]-methyl-amide]
0.032	1.87	CN1C(=O)CCc2cc(-c3cncc(OC[C@@H]4CCCN4C(=O)OC(C)(C)C)c3)ccc21 [Example 51, (S)-2-[5-(1-Methyl-2-oxo-1,2,3,4-tetrahydro-quinolin-6-yl)-pyridin-3-yloxymethyl]-pyrrolidine-1-carboxylic acid tert-butyl ester]
0.03	0.139	CN1C(=O)CCc2cc(-c3cncc(O[C@H]4CCN(C(=O)OC(C)(C)C)C4)c3)c(F)cc21 [Example 52, (S)-3-[5-(7-fluoro-1-methyl-2-oxo-1,2,3,4-tetrahydro-quinolin-6-yl)-pyridin-3-yloxy]-pyrrolidine-1-carboxylic acid tert-butyl ester]
0.029	1.2	CN1C(=O)CCc2cc(-c3cncc(CN)c3Cl)ccc21 [Example 218, 6-(5-Aminomethyl-4-chloro-pyridin-3-yl)-1-methyl-3,4-dihydro-1H-quinolin-2-one hydrochloride]
0.01	0.656	Cc1c(CN(C)C(=O)c2ncccc2Cl)cncc1-c1ccc2c(c1)CCC(=O)N2C [Example 229, 3-Chloro-pyridine-2-carboxylic acid methyl-[4-methyl-5-(1-methyl-2-oxo-1,2,3,4-tetrahydro-quinolin-6-yl)-pyridin-3-ylmethyl]-amide]
0.008	0.121	Cc1cccc(C(=O)NCc2cncc(-c3ccc4c(c3)CCC(=O)N4C)c2)n1 [Example 117]
0.007	0.101	CN1C(=O)CCc2cc(-c3cncc(C(C)(C)N)c3)ccc21 [Example 72, 6-[5-(1-Amino-1-methyl-ethyl)-pyridin-3-yl]-1-methyl-3,4-dihydro-1H-quinolin-2-one]
0.006	0.872	CN1C(=O)CCc2cc(-c3cncc(C4(NC(=O)c5ncccc5Cl)CC4)c3)ccc21 [Example 137, 3-Chloro-pyridine-2-carboxylic acid {1-[5-(1-methyl-2-oxo-1,2,3,4-tetrahydro-quinolin-6-yl)-pyridin-3-yl]-cyclopropyl}-amide]
0.003	0.077	O=C(NCc1cncc(-c2cc3c4c(c2)CCN4C(=O)CC3)c1)c1ncccc1Cl [Example 236, 3-Chloro-pyridine-2-carboxylic acid [5-(4-oxo-1,2,5,6-tetrahydro-4H-pyrrolo[3,2,1-ij]quinolin-8-yl)-pyridin-3-ylmethyl]-amide]
0.001	0.008	CCS(=O)(=O)N1CCC(Oc2cncc(-c3ccc4c(c3)CCC(=O)N4C)c2)CC1 [Example 161, 6-[5-(1-Ethanesulfonyl-piperidin-4-yloxy)-pyridin-3-yl]-1-methyl-3,4-dihydro-1H-quinolin-2-one]
